According to US9012200B2, “Composition of bacterial strains, bioremediation mixture and use of this composition for the removal of contaminants from the soil and the method for purifying the soil contaminants” (priority 2012, dated 2015):
Like-named read-outs stand apart in the source and are kept apart here.

Columns and labels:
[1] = test system: Stenotrophomonas sp. strain 3N; format: cell-based
[2] = test system: investigated strains of bacteria; format: cell-based
[3] = test system: Stenotrophomonas sp. strain 6L; format: cell-based
[4] = test system: Stenotrophomonas sp. strain 2L; format: cell-based
[5] = test system: Brevundimonas sp. strain 6N; format: cell-based
[6] = test system: Stenotrophomonas sp. strain 5L; format: cell-based
[7] = test system: Brevundimonas sp. strain 2N; format: cell-based
[8] = test system: Achromobacter sp. strain 4P; format: cell-based
[9] = test system: Brevundimonas sp. strain 5N; format: cell-based
[10] = test system: Arthrobacter sp. strain 1N; format: cell-based
[11] = test system: model strain Escherichia coli; conditions: according to Spain, 2003; cited from earlier work
[12] = test system: Pseudomonas sp. strain 3G; format: cell-based; conditions: 24 h
[13] = test system: Pseudomonas sp. strain 4G; format: cell-based

Sodium arsenite [As (III)]
MIC threshold values of heavy metals [1]: 3(5) mM/L | Susceptibility of the investigated strains to the heavy metal [2]: resistant | MIC threshold values of heavy metals [3]: 5(7) mM/L | MIC threshold values of heavy metals [4]: 4(6) mM/L | MIC threshold values of heavy metals [5]: 4(7) mM/L | MIC threshold values of heavy metals [6]: 5(7) mM/L | MIC threshold values of heavy metals [7]: 5(7) mM/L | MIC threshold values of heavy metals [8]: 5(6) mM/L | MIC threshold values of heavy metals [9]: 4(7) mM/L | MIC threshold values of heavy metals [10]: 5(8) mM/L | MIC [11]: 0.5 mM/L | MIC threshold values of heavy metals [12]: 5 mM/L | MIC threshold values of heavy metals ([13]; 24 h): 5 mM/L | MIC threshold values of heavy metals ([13]; 48 h): 8 mM/L
